Assay results from PMC12627007, “HIV nucleocapsid proteins as targets for novel 1,2-benzisothiazol-3(2H)-one benzenesulfonamides: synthesis and antiretroviral activity” (Frontiers in Microbiology, 2025).

How the values were obtained:
Assay type in all cases: cell-based
[1] = test system: HIV-1 IIIB strain; test: microbe, parasite or virus in culture; settings: for EC50: Human immunodeficiency virus 1, IIIB, MT4, read-out: EC50 HIV-1; for Selectivity Index (SI = CC50/EC50) HIV-1: IIIB strain, in round brackets
Method: (§1) HIV-1IIIB and HIV-2 CBL-20 strains were obtained from the supernatants of persistently infected H9/IIIB and CEM cells, respectively. HIV-1 and HIV-2 stock solutions had titres of 4.5 × 10^7 and 1.4 × 10^6 50% cell culture infectious doses (CCID50)/ml, respectively. […] The K103R + V179D + P225H mutant (EFVR) was derived from an IIIB strain passaged in MT-4 cells in the presence of Efavirenz (up to 2 μM). N119, A17 and EFV^R stock solutions had titres of 1.2 × 10^8, 2.1 × 10^7, and 4.0 × 10^7 CCID50/ml, respectively.
(§2) The activity of the test compounds against the replication of HIV-1 wt and mutant strains (N119, A17, EFV^R, AZT^R, MDR, SAQ^R) and HIV-2 wt in acutely infected cells was based on the inhibition of virus-induced cytopathogenicity in MT-4 and C8166 cells, respectively. Briefly, 50 μL of culture medium containing 1 × 10^4 cells was added to each well of flat-bottom microtitre trays containing 50 μL of culture medium with or without different serial concentrations of test compounds. Then, 20 μL of an HIV suspension (containing the appropriate amount of CCID50 required to cause complete cytopathogenicity on day 4, final multiplicity of infection [m.o.i.] 0.01) was added.

[2] = Cytotoxicity in mock-infected MT-4 cells (MTT method); settings: human
Method: as §2, with “added. After incubation at 37 °C, cell viability was determined using the […] (MTT) method ([Pauwels et al., 1988]). The cytotoxicity of the test compounds was evaluated in parallel with their antiviral activity through the viability of mock-infected, treated cells, as monitored by the MTT method and described elsewhere ([Morellet et al., 1994]).” for “added.”

[3] = test system: HIV-1 N119 (Y181C); test: Inhibition of virus-induced cytopathogenicity in MT-4 cells, NNRTI-resistant mutant N119; settings: for EC50: Human immunodeficiency virus 1, MT4, read-out: EC50 N119; for Selectivity Index (SI = CC50/EC50) N119: in round brackets
Method: as §1, §2

[4] = test system: HIV-1 A17 (K103N + Y181C); test: Inhibition of virus-induced cytopathogenicity in MT-4 cells, NNRTI-resistant mutant A17; settings: for EC50: Human immunodeficiency virus 1, MT4, read-out: EC50 A17; for Selectivity Index (SI = CC50/EC50) A17: in round brackets
Method: as §1, §2

[5] = test system: HIV-1 EFVR (K103R + V179D + P225H); test: Inhibition of virus-induced cytopathogenicity in MT-4 cells, NNRTI-resistant mutant EFVR; settings: for EC50: Human immunodeficiency virus 1, MT4, read-out: EC50 EFVR; for Selectivity Index (SI = CC50/EC50) EFVR: in round brackets
Method: as §1, §2

[6] = test system: HIV-1 MDR (74V, 41L, 106A, 215Y); test: Inhibition of virus-induced cytopathogenicity in MT-4 cells, NRTI-resistant mutant MDR; settings: for EC50: Human immunodeficiency virus 1, MT4, read-out: EC50 MDR; for Selectivity Index (SI = CC50/EC50) MDR: in round brackets
Method: as §1, §2

[7] = test system: HIV-1 SAQR (L10F, G48V, L90M); test: Inhibition of virus-induced cytopathogenicity in MT-4 cells, PRI-resistant mutant SAQR; settings: for EC50: Human immunodeficiency virus 1, MT4, read-out: EC50 SAQR; for Selectivity Index (SI = CC50/EC50) SAQR: in round brackets
Method: as §1, §2

[8] = test system: HIV-1 AZTR (67N, 70R, 215F, 219Q); test: Inhibition of virus-induced cytopathogenicity in MT-4 cells, NRTI-resistant mutant AZTR; settings: for EC50: Human immunodeficiency virus 1, MT4, read-out: EC50 AZTR; for Selectivity Index (SI = CC50/EC50) AZTR: in round brackets
Method: as §1, §2

Compound | EC50 [1] | Selectivity Index (SI = CC50/EC50) HIV-1 [1] | CC50 at 4 days [2] | EC50 [3] | Selectivity Index (SI = CC50/EC50) N119 [3] | EC50 [4] | Selectivity Index (SI = CC50/EC50) A17 [4] | EC50 [5] | Selectivity Index (SI = CC50/EC50) EFVR [5] | EC50 [6] | EC50 [7] | EC50 [8] | Selectivity Index (SI = CC50/EC50) MDR [6] | Selectivity Index (SI = CC50/EC50) SAQR [7] | Selectivity Index (SI = CC50/EC50) AZTR [8]
O=c1c2ccccc2sn1NS(=O)(=O)c1ccc([N+](=O)[O-])cc1 [Compound 8, 4-Nitro-N-(3-oxo-1,2-benzisothiazol-2(3H)-yl)benzenesulfonamide] | 15 ± 4 µM | > 7 | > 100 µM | 7 ± 0.5 µM | > 14 | 11 ± 2 µM | > 9 | 9 ± 2 µM | > 11 | 6 ± 0.5 µM | 8 ± 1 µM | 7 ± 0.7 µM | – | – | –
COc1ccc(S(=O)(=O)Nn2sc3ccccc3c2=O)cc1 [Compound 9, 4-Methoxy-N-(3-oxo-1,2-benzisothiazol-2(3H)-yl)benzenesulfonamide] | 8 ± 2 µM | 7 | 56 ± 0.1 µM | 6 ± 0.5 µM | 9 | 8 ± 1 µM | 7 | 6 ± 0.7 µM | 9 | 6 ± 0.7 µM | 7 ± 1 µM | 5 ± 1 µM | 9 | 8 | 11
O=c1c2ccccc2sn1NS(=O)(=O)c1ccccc1F [Compound 10, 2-Fluoro-N-(3-oxo-1,2-benzisothiazol-2(3H)-yl)benzenesulfonamide] | 7 ± 0.8 µM | > 14 | > 100 µM | 6 ± 3 µM | > 16 | 7 ± 0.7 µM | > 14 | 5 ± 2 µM | > 20 | 5 ± 0.5 µM | 7 ± 1 µM | 6 ± 0.5 µM | > 20 | > 14 | > 16
O=c1c2ccccc2sn1NS(=O)(=O)c1ccc(F)cc1 [Compound 11, 4-Fluoro-N-(3-oxo-1,2-benzisothiazol-2(3H)-yl)benzenesulfonamide] | 5 ± 2 µM | 10 | 50 ± 4 µM | 5 ± 0.5 µM | 10 | 5 ± 0.2 µM | 10 | 2 ± 0.7 µM | 25 | 6 ± 0.5 µM | 4 ± 0.7 µM | 5 ± 0.5 µM | 8 | 12 | 10
O=c1c2ccccc2sn1NS(=O)(=O)c1ccccc1Cl [Compound 12, 2-Chloro-N-(3-oxo-1,2-benzisothiazol-2(3H)-yl)benzenesulfonamide] | 13 ± 2 µM | 5 | 73 ± 3 µM | 7 ± 0.7 µM | 10 | 11 ± 2 µM | 6 | 9 ± 0.5 µM | 8 | 7 ± 1 µM | 9 ± 2 µM | 9 ± 0.7 µM | 7 | 8 | 8
O=c1c2ccccc2sn1NS(=O)(=O)c1ccc(Cl)cc1 [Compound 13, 4-Chloro-N-(3-oxo-1,2-benzisothiazol-2(3H)-yl)benzenesulfonamide] | 11 ± 4 µM | 3 | 33 ± 0.1 µM | 6 ± 0.9 µM | 5 | 8 ± 1.4 µM | 4 | 3 ± 1 µM | 10 | 7 ± 2 µM | 8 ± 2 µM | 7 ± 1 µM | 4 | 4 | 4
O=c1c2ccccc2sn1NS(=O)(=O)c1cccc(Cl)c1 [Compound 14, 3-Chloro-N-(3-oxo-1,2-benzisothiazol-2(3H)-yl)benzenesulfonamide] | 5 ± 1 µM | 8 | 40 ± 2 µM | 7 ± 1.4 µM | 5 | 3 ± 1 µM | – | 7 ± 1 µM | – | 6 ± 1 µM | 4 ± 0.7 µM | 6 ± 0.7 µM | 6 | 10 | 6
O=c1c2ccccc2sn1NS(=O)(=O)c1ccc(Cl)c(Cl)c1 [Compound 15, 3,4-Dichloro-N-(3-oxo-1,2-benzisothiazol-2(3H)-yl)benzenesulfonamide] | 15 ± 4 µM | 4 | 66 ± 3 µM | 7 ± 0.1 µM | 9 | 8 ± 2 µM | 8 | 8 ± 1.5 µM | 8 | 11 ± 3 µM | 8 ± 2 µM | 6 ± 1 µM | 6 | 8 | 11
O=c1c2ccccc2sn1NS(=O)(=O)c1cc(Cl)cc(Cl)c1 [Compound 16, 3,5-Dichloro-N-(3-oxo-1,2-benzisothiazol-2(3H)-yl)benzenesulfonamide] | 16 ± 5 µM | 5 | 86 ± 1 µM | 7 ± 0.4 µM | 12 | 11 ± 2 µM | 7 | 10 ± 3 µM | 8 | 13 ± 2 µM | 12 ± 2 µM | 8 ± 0.7 µM | 6 | 7 | 10
O=c1c2cc(Cl)ccc2sn1NS(=O)(=O)c1ccccc1Cl [Compound 18, 2-Chloro-N-(5-chloro-3-oxo-1,2-benzisothiazol-2(3H)-yl)benzenesulfonamide] | 16 ± 3 µM | > 6 | > 100 µM | 14 ± 1 µM | > 5 | 20 ± 4 µM | > 5 | 7 ± 2 µM | > 14 | 16 ± 2 µM | 15 ± 3 µM | 12 ± 2 µM | > 6 | > 6 | > 8
O=c1c2ccccc2sn1N(S(=O)(=O)c1ccccc1)S(=O)(=O)c1ccccc1 [Compound 20, N-(3-oxo-1,2-benzisothiazol-2(3H)-yl)-N-(phenylsulfonyl)benzenesulfonamide] | 22 ± 3.5 µM | – | > 100 µM | 23 ± 1 µM | – | 25 ± 2 µM | > 4 | 22 ± 1 µM | > 4 | 19 ± 1 µM | 25 ± 3 µM | 20 ± 2 µM | > 5 | > 4 | > 5
